Measured values as given in PMC12040169 (PLOS Biology, 2025).

Test: in vitro
Settings: human, hela cells, % viability

| Compound | viability at 28.5 h, 10 µM |
| --- | --- |
| O=c1[nH]cc(-c2ccc(F)cc2)cc1CNCc1cccc(F)c1 [CBK284697] | 94.6% |
| CCn1ncc(CN2CCCC(c3cc4cccnc4[nH]3)C2)c1C (centres unmarked) [CBK284700] | 96.9% |
| CCn1cc(CN2CCCC(c3cc4cccnc4[nH]3)C2)c(C)n1 (centres unmarked) [CBK284701] | 89.2% |
| C[C@]12CN(Cc3cccs3)C[C@H]1NC(=O)c1ccccc1C2=O [CBK284702] | 89.2% |
| C[C@]12CN(Cc3ccccc3)C[C@H]1NC(=O)c1ccccc1C2=O [CBK284703] | 96.5% |
| C[C@]12CN(Cc3cccs3)C[C@H]1C(=O)Nc1ccccc1C(=O)N2 [CBK284705] | 98.2% |
| O=C(Cn1c(=O)n(Cc2ccco2)c2ncccc21)N1CCCC1 [CBK284708] | 88.9% |
| COC(=O)C1(Cc2ccccc2-c2ccncc2)CCOCC1 [CBK284709] | 95.2% |
| CC(C)(C)OC(=O)N1CCCC(c2nc3ccccc3cc2N)C1 (centres unmarked) [CBK284711] | 96.7% |
| O=C(Cn1nc(-c2cc3c(s2)CCC3)oc1=O)N1CCCC1 [CBK284712] | 90.3% |
| CN(C)C(=O)Cn1nc(-c2cc3c(s2)CCC3)oc1=O [CBK284715] | 99% |
| COc1ccc2cnc(C3CCCN(C(=O)C4CC4)C3)cc2c1C (centres unmarked) [CBK284716] | 90.8% |
| O=C(NC1CCN(C(=O)CCn2ccc3ccncc32)CC1)C1CC1 [CBK284718] | 78.3% |
| CCOC(=O)C1CCN(C(=O)CCn2ccc3ccncc32)CC1 [CBK284720] | 84.2% |
| CCCC(=O)N1CCCC([C@@H]2C[C@H](C(F)F)n3nc(C)cc3N2)C1 (some centres unmarked) [CBK284721] | 93.2% |
| Cc1cc2n(n1)[C@@H](C(F)F)C[C@@H](C1CCCN(C(=O)C(C)C)C1)N2 (some centres unmarked) [CBK284722] | 96.1% |
| Cc1cc2n(n1)[C@@H](C(F)F)C[C@@H](C1CCCN(C(=O)C3CC3)C1)N2 (some centres unmarked) [CBK284723] | 98.7% |
| O=C(Cn1ccc2ccnc(-c3cccs3)c21)N1CCOCC1 [CBK284729] | 94.2% |
| CC(C)C(=O)NC1CCN(C(=O)CCn2ccc3ccncc32)CC1 [CBK284730] | 98% |
| CC(C)NC(=O)Cn1ccc2ccnc(-c3cccs3)c21 [CBK284732] | 91.3% |
| O=C(Cn1ccc2ccnc(-c3cccs3)c21)N1CCNCC1 [CBK284733] | 90.9% |
| O=C(Cn1ccc2ccnc(-c3cccs3)c21)NCc1ccccn1 [CBK284735] | 95.9% |
| Cn1cc(C2CCCCCN2S(=O)(=O)c2ccc(F)cc2)cn1 (centres unmarked) [CBK284739] | 91.7% |

| Compound | viability at 28.5 h, 10 µM |
| --- | --- |
| Cn1cc(NC(=O)CCn2c(C(F)F)cc3cccnc32)cn1 [CBK284740] | 90.2% |
| Cc1cnc2[nH]c(C3CC3)c(CN3CC(C)OC(C)C3)c2c1 (centres unmarked) [CBK284741] | 91.8% |
| Cc1cnc2[nH]c(C(C)C)c(CN3CCCOCC3)c2c1 [CBK284742] | 90.7% |
| CCCC(=O)N1CCC(c2nc3ccccn3c2NC(C)(C)C)CC1 [CBK284744] | 81.9% |
| CCS(=O)(=O)N1CCC2(C=Cc3cc(F)ccc3O2)CC1 [CBK284747] | 104% |
| CC(C)(C)c1cc(C(=O)N2CCn3cc(C(F)(F)F)nc3C2)[nH]n1 [CBK284748] | 87.7% |
| OC1(Cn2ccc3ncccc32)CCN(Cc2ccccc2F)CC1 [CBK284752] | 93.3% |
| Cc1cnc2[nH]c(C3CCN(C(=O)c4scnc4C)CC3)cc2c1 [CBK284753] | 96.7% |
| Cc1cnc2c(c1)cc(C1CCOCC1)n2CC(=O)N(C)C [CBK284754] | 102% |
| Cc1cnc2c(c1)cc(C1CCOCC1)n2CC(=O)NC1CCCC1 [CBK284755] | 103% |
| Cc1occc1-c1nn(C2CCNCC2)c(=O)o1 [CBK284757] | 98.5% |
| Cc1cnc2[nH]c(C(C)C)c(CN(C)C)c2c1 [CBK284758] | 100% |
| O=C(CCn1ccc2ccncc21)NCCc1c[nH]c2ccccc12 [CBK284760] | 99% |
| CC(C)NC(=O)[C@@H]1CN(C)C[C@]12CCc1ccccc1C2=O [CBK284764] | 93.8% |
| Cc1cnc2[nH]c(C(F)(F)F)c(CN3CCOCC3)c2c1 [CBK284766] | 85.7% |
| Cc1cnc2[nH]c(C(F)(F)F)c(CN3CCSCC3)c2c1 [CBK284767] | 90% |
| CC(=O)N1CCN(Cc2c(C(F)(F)F)[nH]c3ncc(C)cc23)CC1 [CBK284768] | 93.1% |
| O=c1[nH]cc(-c2ccccc2)cc1CNc1ccccc1-n1ccnc1 [CBK284769] | 101% |
| O=c1[nH]cc(-c2ccccc2)cc1CNCC1Cc2ccccc2O1 (centres unmarked) [CBK284772] | 92.3% |
| COCCC(=O)NC(Cc1ccsc1)c1nc(C)c(C)s1 (centres unmarked) [CBK284774] | 84.7% |
| Cc1nc(C(Cc2ccsc2)NC(=O)C(C)(C)N)sc1C (centres unmarked) [CBK284775] | 93% |
| Cc1nc(C(Cc2ccsc2)NC(=O)c2cc[nH]n2)sc1C (centres unmarked) [CBK284776] | 85.9% |
| Cc1nc(C(Cc2ccsc2)NC(=O)Cn2ccnc2)sc1C (centres unmarked) [CBK284777] | 102% |

| Compound | viability at 28.5 h, 10 µM |
| --- | --- |
| Cc1nc(C(Cc2ccsc2)NC(=O)c2ccnn2C)sc1C (centres unmarked) [CBK284778] | 87.6% |
| Cc1nc(C(Cc2ccsc2)NC(=O)c2cnn(C)c2)sc1C (centres unmarked) [CBK284779] | 104% |
| OC1(Cn2ccc3ncccc32)CCN(Cc2cccs2)CC1 [CBK284783] | 88.3% |
| CC(C)NC(=O)C1(Cc2ccccc2-c2ccncc2)CCOCC1 [CBK284786] | 94.1% |
| CC(C)(C)Nc1c(C2CCN(C(=O)C3CC3)CC2)nc2ccccn12 [CBK284787] | 104% |
| C[C@]12CN(C3CCSC3)C[C@H]1C(=O)Nc1ccccc1C(=O)N2 (some centres unmarked) [CBK284788] | 90.8% |
| OC1(Cn2cnc3ccccc32)CCN(CCc2ccccc2)CC1 [CBK284789] | 100% |
| O=C(C1CC1)N1C[C@@H](c2ccccc2)[C@H](c2cc(C(F)F)[nH]n2)C1 [CBK284791] | 91.1% |
| CN1C[C@@H](C(=O)N(C)C)[C@@]2(CCc3ccccc3C(=O)N2)C1 [CBK284792] | 102% |
| CN1C[C@@H](C(=O)NC(C)(C)C)[C@@]2(CCc3ccccc3C(=O)N2)C1 [CBK284796] | 99% |
| O=C1NC=CCC12CCCN(S(=O)(=O)c1ccc(F)cc1)C2 (centres unmarked) [CBK284797] | 93.5% |
| O=C1NC2(CCCN(C(=O)c3cccs3)C2)Oc2ccccc21 (centres unmarked) [CBK284799] | 93% |
| CN(C)CC(=O)NC(Cc1ccsc1)c1nccs1 (centres unmarked) [CBK284801] | 91.4% |
| O=C(NC(Cc1cccs1)c1nccs1)C1CSCN1 (centres unmarked) [CBK284805] | 91.4% |
| CC(NC(=O)c1ccc(-n2ccnc2)c(-n2cccc2)c1)c1ccco1 (centres unmarked) [CBK284808] | 98% |
| O=C(Cn1cccc2cc(-c3ccc(F)cc3)nc1-2)N1CCOCC1 [CBK284809] | 87.5% |
| O=C(c1ccc(-n2ccnc2)c(-n2cccc2)c1)N1CCCCCC1 [CBK284813] | 87.4% |
| O=c1c2ccccc2nc2n1CCN(Cc1cccs1)CC2 [CBK284815] | 92.3% |
| O=c1c2ccccc2nc2n1CCN(Cc1ccc(F)c(F)c1)CC2 [CBK284816] | 96.6% |
| O=c1c2ccccc2nc2n1CCN(Cc1c(F)cccc1F)CC2 [CBK284817] | 88.7% |
| O=c1c2ccccc2nc2n1CCN(Cc1cc(F)ccc1F)CC2 [CBK284818] | 99.1% |
| CC(=O)NC1(c2ccccc2)CCN(CC(O)c2ccccc2)CC1 (centres unmarked) [CBK284819] | 107% |
| CN(C)CCNC(=O)Cn1c(-c2ccc(F)cc2)cc2cccnc21 [CBK284820] | 97.7% |

| Compound | viability at 28.5 h, 10 µM |
| --- | --- |
| Cc1ccc(CN2CCC3(CCCNC3=O)CC2)cc1 [CBK284822] | 90.6% |
| COc1cccc(CN2CCC3(CCCNC3=O)CC2)c1 [CBK284824] | 96.6% |
| O=C1NCCCC12CCN(Cc1ccc3ncccc3c1)CC2 [CBK284825] | 91.4% |
| COc1ccc(F)c(CN2CCC3(CCCNC3=O)CC2)c1 [CBK284827] | 102% |
| O=C1CCN(Cc2ccccc2)CCN1C(=O)C1CCCC1 [CBK284829] | 85.7% |
| Cc1ccc2c(c1)c(=O)cc(C(F)(F)F)n2CCNC(=O)C1CC1 [CBK284831] | 93.1% |
| CC1CCCCN1C(=O)c1ccc(-n2ccnc2)c(-n2cccc2)c1 (centres unmarked) [CBK284832] | 95.5% |
| Cc1ccc2c(c1)CN(C(=O)C1CC1C)CC1(CCN(C)CC1)O2 (centres unmarked) [CBK284833] | 94.5% |
| Cc1ccc2c(c1)C(=O)NCC1(CCN(C(=O)C3CC3)CC1)O2 [CBK284835] | 108% |
| C=Cn1ncc(CN2CCCC(O)(c3ccc(F)cc3)CC2)c1C (centres unmarked) [CBK284837] | 89.3% |
| CCn1cncc1CN1CCCC(O)(c2ccc(F)cc2)CC1 (centres unmarked) [CBK284838] | 90.6% |
| O=C(C1CCOCC1)N1CCCC[C@H]2CN(Cc3ccccc3)C[C@H]21 [CBK284839] | 86.9% |
| Cc1cc(C2CCCCCN2C(=O)c2ccccc2F)on1 (centres unmarked) [CBK284842] | 94.5% |
| Cc1cc(C2CCCCCN2C(=O)c2nn(C)cc2Cl)on1 (centres unmarked) [CBK284843] | 105% |
| Cc1cc(C2CCCCCN2Cc2c(C)nn(C)c2C)no1 (centres unmarked) [CBK284846] | 87.6% |
| COc1ccccc1CCC(=O)N1CCCc2c(cnn2C)C1 [CBK284847] | 80% |
| CCOC(=O)[C@H]1CC[C@]2(CC1)CN(C)C(=O)c1ccccc1O2 [CBK284848] | 101% |
| CCOC(=O)[C@H]1CC[C@]2(CC1)CNC(=O)c1cc(Cl)ccc1O2 [CBK284849] | 89.9% |
| Cc1nn(C)c(C)c1CCC(=O)N1CCc2ncc(Cl)cc2C1 [CBK284851] | 114% |
| Cc1ncccc1C(=O)N1CCC(c2cc3ccccc3cn2)CC1 [CBK284854] | 113% |
| CCc1n[nH]c(C(=O)N2CCc3ncc(Cl)cc3C2)c1C [CBK284856] | 92.8% |
| O=C1NCC2(CCCN(Cc3ccc(F)cc3)C2)Oc2ccccc21 (centres unmarked) [CBK284857] | 92.7% |
| CCOC(=O)C1C2CCC3(CC(=O)c4cc(Cl)ccc4O3)C21 (centres unmarked) [CBK284858] | 107% |
